Assay results reported in patent publication US9469650B2, “Melampomagnolide B derivatives” (BOARD OF TRUSTEES OF THE UNIVERSITY OF ARKANSAS, priority 2013, dated 2016).

Assays:
SK-MEL-2 = assay: panel of 60 human tumor cell lines, growth inhibition (Melanoma); conditions: Homo sapiens
HT29 = assay: panel of 60 human tumor cell lines, growth inhibition (Colon Cancer); conditions: for Percent Growth: HT29
CAKI-1 = assay: panel of 60 human tumor cell lines, growth inhibition (Renal Cancer); conditions: Homo sapiens
IGROV1 = assay: panel of 60 human tumor cell lines, growth inhibition (Ovarian Cancer); conditions: Homo sapiens
NCI-H23 = assay: panel of 60 human tumor cell lines, growth inhibition (Non-Small Cell Lung Cancer); conditions: Homo sapiens
MDA-MB-231/ATCC = assay: panel of 60 human tumor cell lines, growth inhibition (Breast Cancer); conditions: Homo sapiens
SF-268 = assay: panel of 60 human tumor cell lines, growth inhibition (CNS Cancer); conditions: Homo sapiens
NCI-H522 = assay: panel of 60 human tumor cell lines, growth inhibition (Non-Small Cell Lung Cancer); conditions: Homo sapiens
OVCAR-8 = assay: panel of 60 human tumor cell lines, growth inhibition (Ovarian Cancer); conditions: Homo sapiens
OVCAR-5 = assay: as above; conditions: Homo sapiens
MCF7 = assay: panel of 60 human tumor cell lines, growth inhibition (Breast Cancer); conditions: Homo sapiens
A549/ATCC = assay: panel of 60 human tumor cell lines, growth inhibition (Non-Small Cell Lung Cancer); conditions: Homo sapiens
SK-OV-3 = assay: panel of 60 human tumor cell lines, growth inhibition (Ovarian Cancer); conditions: Homo sapiens
TK-10 = assay: panel of 60 human tumor cell lines, growth inhibition (Renal Cancer); conditions: Homo sapiens
CCRF-CEM = assay: panel of 60 human tumor cell lines, growth inhibition (Leukemia); conditions: Homo sapiens
SW-620 = assay: panel of 60 human tumor cell lines, growth inhibition (Colon Cancer); conditions: Homo sapiens
LOX IMVI = assay: panel of 60 human tumor cell lines, growth inhibition (Melanoma); conditions: Homo sapiens
M14 = assay: as above; conditions: Homo sapiens

`C=C1C(=O)O[C@H]2[C@H]1CC/C(COC(=O)OC)=C\CC[C@@]1(C)O[C@@H]21` [JVM 2-40] was tested, and the GI50 (SK-MEL-2; SK-MEL-2) was 10.6 µM, the CC50 (SK-MEL-2; SK-MEL-2, read-out: LC50) was 59.5 µM and the IC (TGI) (SK-MEL-2; SK-MEL-2, read-out: TGI) was 25.1 µM. The “Percent Growth” value (HT29; Log10 Concentration −4.0) was −76%, the “Percent Growth” value (HT29; Log10 Concentration −5.0) was 83% and the “Percent Growth” value (HT29; Log10 Concentration −6.0) was 99%. The “Percent Growth” value (HT29; Log10 Concentration −7.0) was 96%, the “Percent Growth” value (HT29; Log10 Concentration −8.0) was 96% and the GI50 (HT29; Homo sapiens, HT-29) was 16.1 µM. It also gave a CC50 (HT29; Homo sapiens, HT-29, read-out: LC50) of 68.6 µM, an IC (TGI) (HT29; Homo sapiens, HT-29, read-out: TGI) of 33.2 µM and a GI50 (CAKI-1; CAKI-1) of 2.79 µM. The CC50 (CAKI-1; CAKI-1, read-out: LC50) was 38.8 µM, the IC (TGI) (CAKI-1; CAKI-1, read-out: TGI) was 15 µM and the GI50 (IGROV1; IGROV-1) was 16.6 µM. The CC50 (IGROV1; IGROV-1, read-out: LC50) was 85.8 µM, the IC (TGI) (IGROV1; IGROV-1, read-out: TGI) was 37.7 µM and the GI50 (NCI-H23; NCI-H23) was 13 µM. It also gave a CC50 (NCI-H23; NCI-H23, read-out: LC50) of 85.2 µM, an IC (TGI) (NCI-H23; NCI-H23, read-out: TGI) of 33.3 µM and a GI50 (MDA-MB-231/ATCC; MDA-MB-231) of 3.54 µM. It also gave a CC50 (MDA-MB-231/ATCC; MDA-MB-231, read-out: LC50) of 46.7 µM, an IC (TGI) (MDA-MB-231/ATCC; MDA-MB-231, read-out: TGI) of 16.6 µM and a GI50 (SF-268; SF-268) of 7.36 µM. The CC50 (SF-268; SF-268, read-out: LC50) was 62.8 µM, the IC (TGI) (SF-268; SF-268, read-out: TGI) was 23.6 µM and the GI50 (NCI-H522; NCI-H522) was 1.07 µM. The CC50 (NCI-H522; NCI-H522, read-out: LC50) was 5.82 µM, the IC (TGI) (NCI-H522; NCI-H522, read-out: TGI) was 2.5 µM and the GI50 (OVCAR-8; OVCAR-8) was 8.95 µM. For the same compound, the CC50 (OVCAR-8; OVCAR-8, read-out: LC50) was 65.6 µM, the IC (TGI) (OVCAR-8; OVCAR-8, read-out: TGI) was 24.7 µM and the GI50 (OVCAR-5; OVCAR-5) was 5.31 µM. It also gave a CC50 (OVCAR-5; OVCAR-5, read-out: LC50) of 47 µM, an IC (TGI) (OVCAR-5; OVCAR-5, read-out: TGI) of 19.5 µM and a GI50 (MCF7; MCF7, MCF7, NCI five dose) of 2.28 µM. The CC50 (MCF7; MCF7, read-out: LC50) was 49.8 µM, the IC (TGI) (MCF7; MCF7, read-out: TGI) was 12.2 µM and the GI50 (A549/ATCC; A549) was 13.3 µM. It also gave a CC50 (A549/ATCC; A549, read-out: LC50) of 61.3 µM, an IC (TGI) (A549/ATCC; A549, read-out: TGI) of 28.6 µM and a GI50 (SK-OV-3; SK-OV-3) of 22.7 µM. For the same compound, the CC50 (SK-OV-3; SK-OV-3, read-out: LC50) was greater than 100 µM, the IC (TGI) (SK-OV-3; SK-OV-3, read-out: TGI) was 59.7 µM and the GI50 (TK-10; TK-10, TK-10, NCI five dose) was 2.65 µM. It also gave a CC50 (TK-10; TK-10, read-out: LC50) of 32.9 µM, an IC (TGI) (TK-10; TK-10, read-out: TGI) of 10.8 µM and a GI50 (CCRF-CEM; NCI five dose) of 1.49 µM. The CC50 (CCRF-CEM; read-out: LC50) was 98 µM, the IC (TGI) (CCRF-CEM; read-out: TGI) was 6.04 µM and the GI50 (SW-620; SW-620, SW-620, NCI five dose) was 2.39 µM. For the same compound, the CC50 (SW-620; SW-620, read-out: LC50) was 47.4 µM, the IC (TGI) (SW-620; SW-620, read-out: TGI) was 11.9 µM and the GI50 (LOX IMVI; NCI five dose) was 3.4 µM. It also gave a CC50 (LOX IMVI; read-out: LC50) of 43.3 µM, an IC (TGI) (LOX IMVI; read-out: TGI) of 13.1 µM and a GI50 (M14; M14) of 2.91 µM. It also gave a CC50 (M14; M14, read-out: LC50) of 42.2 µM and an IC (TGI) (M14; M14, read-out: TGI) of 14.1 µM.
